Measured values as given in patent publication US10184112B2, “Culture medium additive for use in serum-free culturing of animal cell, kit and use thereof” (Two Cells Co., Ltd., priority 2006, dated 2019).
Entries after “also recorded” stand apart in the source; their conditions may differ.

Tested on: Erk 1/2
Test: Mitogenic signal transduction, western blot for phosphorylated Erk 1/2 (FIGS. 11, 12)
Assay type: cell-based
Conditions: human mesenchymal stem cells stimulated; compared with controlled cells (not stimulated)
Experimental: For the purpose of clarifying a mechanism of cell proliferation in a serum-free culture medium, study was further conducted on activation of a mitogenic signal transduction system caused by each additive factor added into a serum-free culture medium. An active state of the mitogenic signal transduction system caused by each additive factor was analyzed by a western blot method. Here, in protein phosphoenzymes that are particularly closely related to cell proliferation, an extracellular signal control kinase Erk 1/2 and an Akt (a protein phosphoenzyme located downstream to PI3K, and related to regulations of cell functions) were focused in the present example. When the Erk1 1/2 and the Akt are phosphorylated, they are converted into active forms. […] The cultured cells were washed twice with PBS, and were then further cultured for 16 hours in a serum-free culture medium containing 1.25 mg/ml of BSA (bovine serum albumin). After that, the cultured cells were incubated for minutes respectively: (i) in stimulating solutions respectively containing growth factors (E: EGF, F: FGF, G: PDGF, H: HGF, I: insulin, J: TGF-β), dexamethasone (D), transferrin (T); […] B1, A6: phosphatidic acid, A7: phosphatidyl choline); and (iii) in a controlling solution containing none of them. Further, each of the stimulating solutions, and the controlling solution were removed by suction on ice, and then, the cells were washed twice with PBS. The cells thus washed were dissolved in lysis buffer. The resultant cell lysis solution was centrifuged by 6.500 g for 10 minutes, and its supernatant liquid was electrophoresed on 10% SDS-polyacrylamide gel. Proteins thus separated into fractions were transferred on a PVDF membrane (made by Millipore Co.), and then, the fractions were analyzed with antiphosphorylation-specific Erk 1/2 antibody, or antiphosphorylation-specific Akt antibody (both are made by Cell Signaling technology Inc.).

Row | Molecule | phosphorylation of the Erk 1/2
1 | 3-sn-phosphatidic acid from egg yolk | strongly promoted
2 | HGF: growth factor added to the serum-free culture medium | more phosphorylated; also recorded: promoted in view of concentration dependence
3 | CCCCCCCC/C=C\CCCCCCCC(=O)O [oleic acid] | promoted
4 | 3-sn-phosphatidyl choline from egg yolk | promoted
5 | CCCCC/C=C\C/C=C\C/C=C\C/C=C\CCCC(=O)O [arachidonic acid] | promoted
6 | CCCCC/C=C\C/C=C\CCCCCCCC(=O)O [linoleic acid] | promoted
7 | FGF: growth factor of the fibroblast growth factor family, preferably FGF-2 (bFGF) | more phosphorylated
8 | PDGF | more phosphorylated
9 | insulin: medium supplement | more phosphorylated
10 | EGF: epidermal growth factor | more phosphorylated

Tested on: Akt
Test: Mitogenic signal transduction, western blot for phosphorylated Akt (FIGS. 11, 12)
Assay type: cell-based
Conditions: human mesenchymal stem cells stimulated; compared with controlled cells (not stimulated)
Experimental: For the purpose of clarifying a mechanism of cell proliferation in a serum-free culture medium, study was further conducted on activation of a mitogenic signal transduction system caused by each additive factor added into a serum-free culture medium. An active state of the mitogenic signal transduction system caused by each additive factor was analyzed by a western blot method. Here, in protein phosphoenzymes that are particularly closely related to cell proliferation, an extracellular signal control kinase Erk 1/2 and an Akt (a protein phosphoenzyme located downstream to PI3K, and related to regulations of cell functions) were focused in the present example. When the Erk1 1/2 and the Akt are phosphorylated, they are converted into active forms. In a culture medium containing 10% FBS on a 12-well plate, human mesenchymal stem cells (three cell lines) were cultured until the cells were in a subconfluent state. The cultured cells were washed twice with PBS, and were then further cultured for 16 hours in a serum-free culture medium containing 1.25 mg/ml of BSA (bovine serum albumin). […] Proteins thus separated into fractions were transferred on a PVDF membrane (made by Millipore Co.), and then, the fractions were analyzed with antiphosphorylation-specific Erk 1/2 antibody, or antiphosphorylation-specific Akt antibody (both are made by Cell Signaling technology Inc.).

Row | Molecule | phosphorylation of the Akt
11 | 3-sn-phosphatidic acid from egg yolk | strongly promoted
12 | HGF: growth factor added to the serum-free culture medium | also promoted

Tested on: human mesenchymal stem cell
Test: not given
Conditions: added to a culture medium containing 10% FBS; cited from earlier work

Row | Molecule | proliferation of a human mesenchymal stem cell | wingless/int (wnt) signal pathway
13 | [Cl-].[Li+] [lithium chloride] | promoting proliferation | activates
